The structures appear in SMILES notation.

In the test the test system is phosphorylated Akt at serine 473 (pAKTs473) in primary human lung fibroblasts. The test is described as follows: Highthroughput phosphorylated Akt (Ser473) in vitro immunoassay (MSD). In kind it is cell-based. The note with it: Fibroblast, 1 h compound, PDGF-BB 10 ng/ml for 10 min, mean of multiple experiments, read-out: mean pIC50, inhibition of pAkt (Ser473) (converted). From the text:
Highthroughput Phosphorylated Akt (Ser473) In Vitro Immunoassay
Immunoassay to measure effect of test compounds on phosphorylated Akt at serine 473 (pAKTs473) in primary human lung fibroblasts (Lonza Group Ltd, Basel, Switzerland, Catalogue No. CC-2512) using the MesoScale Discovery (MSD) platform to quantify levels of total Akt and pAKTser473.
Human lung fibroblasts were routinely maintained in fibroblast basal medium supplemented with 2% foetal bovine serum (FBS), 0.1% human fibroblast growth factor (FGF)-B, 0.1% insulin, 0.1% GA-100 (Lonza Group Ltd, Basel, Switzerland, Catalogue No. CC-3132) at 37° C. in 5% CO2 according to the manufacturer's protocol.
For the assay, cells were harvested using Trypsin/EDTA, (Lonza Group Ltd, Basel, Switzerland, Catalogue No. CC-5012), at working concentration of 0.025%, resuspended to give 3×10^5 cells/ml and 50 ul/well seeded into 384-well plates (Greiner Group, Kremsmunster, Austria, Catalogue No. 781091) in media containing 0.4% FBS and incubated o/n at 37° C. in 5% CO2.
Test compounds were dissolved in 100% DMSO to give 10 mM stock solutions and serially diluted to generate an 11-point concentration response curve. Compound were further diluted by […] into 384-well V-bottom polypropylene plates (Greiner Group, Kremsmunster, Austria, Catalogue No. 781280) with media containing 0.4% FBS to give 50 μM top compound concentration in 0.5% DMSO.
Compounds were transferred to 384-well plates contacting cells (0.1% DMSO final) and incubated for 1 h at 37° C. in 5% CO2, prior to stimulation with platelet-derived growth factor (PDGF)-BB (R&D Systems, Catalogue No. 220-BB) at 10 ng/ml (final) for 10 min at RT. Cell assay plates were incubated on ice and treated with lysis buffer (Cell Signalling Technology, Catalogue No. 9806) containing protease and phosphatase inhibitors (Thermo Scientific, Catalogue No. 78444) followed by shaking for 30 min at 4° C.
MSD plates (MSD, MA6000 384-well GAR plate, Catalogue No. L21RA-2) were blocked with blocking buffer containing TBS (MSD, Cat. No. R61TX-1) with 0.5% bovine serum albumin (BSA) (Sigma Aldrich, Cat. No. A7906), 0.1% tween-20 (Sigma Aldrich, Catalogue No. P2287) and coated with rabbit-anti-human pAkt (s473) ab (Cell Signalling Technology, Catalogue No. CST #4060) at RT with shaking, followed by washing (×3) with 1×TBS wash reagent containing 0.1% Tween-20. Cell lysates (30 ul) were added and MSD plates centrifuged at 1000 rpm at 4° C. o/n.
Plates were washed with 1×TBS wash buffer (×3), prior to addition of mouse-anti-human-total Akt ab (1 mg/ml) (Upstate (Milipore), Catalogue No. 05-591) in blocking buffer and shaken at RT for 1 h. After washing with 1×TBS wash buffer (×3), plates were incubated with goat-anti-mouse SULFO-TAG detection ab (MSD, Catalogue No. R32AC-1) (1:500 in blocking buffer) for 1 h at RT. Plates were washed with 1×TBS (×3) and read buffer (2×) (MSD, Catalogue No. R92TC-1) added before detecting electrochemiluminescence (MSD Sector Imager 6000).
Data analysis was performed by determining % inhibition values for test compounds relative to the minimum (+PDGF-BB stimulation) and maximum responses (no PDGF-BB stimulation) with non-linear regression analysis to determine IC50 values for test compounds.
On to `CNCc1cc2nc(-c3cc(C(C)(C)S(C)(=O)=O)cc(N4CCOC[C@@H]4C)n3)ccc2[nH]1` [Example 2, (S)—N-methyl-1-(5-(6-(3-methylmorpholino)-4-(2-(methylsulfonyl)propan-2-yl)pyridin-2-yl)-1H-pyrrolo[3,2-b]pyridin-2-yl)methanamine], for which the IC50 is 3.16 to 316 nM.
On to `CNCc1cc2nc(-c3cc(C(C)(C)S(C)(=O)=O)cc(N4[C@@H]5CC[C@H]4COC5)n3)ccc2[nH]1` [Example 3, 1-(5-(6-((1R,5S)-3-oxa-8-azabicyclo[3.2.1]octan-8-yl)-4-(2-(methylsulfonyl)propan-2-yl)pyridin-2-yl)-1H-pyrrolo[3,2-b]pyridin-2-yl)-N-methylmethanamine], for which the IC50 is 3.16 to 316 nM.
The result for `CNCc1cc2nc(-c3cc(C(C)(C)S(C)(=O)=O)cc(N4CC5CCC(C4)O5)n3)ccc2[nH]1` [Example 4, 1-(5-(6-(8-oxa-3-azabicyclo[3.2.1]octan-3-yl)-4-(2-(methylsulfonyl)propan-2-yl)pyridin-2-yl)-1H-pyrrolo[3,2-b]pyridin-2-yl)-N-methylmethanamine] reads 3.16 to 316 nM; that for `CNCc1cc2nc(-c3cc(C(C)(C)S(C)(=O)=O)cc(N4C5CCCC4COC5)n3)ccc2[nH]1` [Example 5, 1-(5-(6-(3-oxa-9-azabicyclo[3.3.1]nonan-9-yl)-4-(2-(methylsulfonyl)propan-2-yl)pyridin-2-yl)-1H-pyrrolo[3,2-b]pyridin-2-yl)-N-methylmethanamine], 3.16 to 316 nM.
The result for `CNCc1cc2nc(-c3cc(CS(C)(=O)=O)cc(N4CCOC[C@@H]4C)n3)ccc2[nH]1` [Example 6, (S)—N-methyl-1-(5-(6-(3-methylmorpholino)-4-((methylsulfonyl)methyl)pyridin-2-yl)-1H-pyrrolo[3,2-b]pyridin-2-yl)methanamine] reads 3.16 to 316 nM; that for `CCS(=O)(=O)C(C)(C)c1cc(-c2ccc3[nH]c(CNC)cc3n2)nc(N2CCOC[C@@H]2C)c1` [Example 7, (S)-1-(5-(4-(2-(ethylsulfonyl)propan-2-yl)-6-(3-methylmorpholino)pyridin-2-yl)-1H-pyrrolo[3,2-b]pyridin-2-yl)-N-methylmethanamine], 3.16 to 316 nM; that for `CC[C@H]1COCCN1c1cc(C(C)(C)S(=O)(=O)C2CC2)cc(-c2ccc3[nH]c(CNC)cc3n2)n1` [Example 9, (S)-1-(5-(4-(2-(cyclopropylsulfonyl)propan-2-yl)-6-(3-ethylmorpholino)pyridin-2-yl)-1H-pyrrolo[3,2-b]pyridin-2-yl)-N-methylmethanamine], 3.16 to 316 nM.
The result for `CC[C@H]1COCCN1c1cc(CS(=O)(=O)C2CC2)cc(-c2ccc3[nH]c(CNC)cc3n2)n1` [Example 10, (S)-1-(5-(4-((cyclopropylsulfonyl)methyl)-6-(3-ethylmorpholino)pyridin-2-yl)-1H-pyrrolo[3,2-b]pyridin-2-yl)-N-methylmethanamine] reads 2.51 to 10 nM; that for `CC[C@H]1COCCN1c1cc(C2(S(=O)(=O)C3CC3)CC2)cc(-c2ccc3[nH]c(CNC)cc3n2)n1` [Example 11, (S)-1-(5-(4-(1-(cyclopropylsulfonyl)cyclopropyl)-6-(3-ethylmorpholino)pyridin-2-yl)-1H-pyrrolo[3,2-b]pyridin-2-yl)-N-methylmethanamine], 3.16 to 316 nM.
With `CNCc1cc2nc(-c3cc(C(F)(F)S(C)(=O)=O)cc(N4CCOC[C@@H]4C)n3)ccc2[nH]1` [Example 12, (S)-1-(5-(4-(difluoro(methylsulfonyl)methyl)-6-(3-methylmorpholino)pyridin-2-yl)-1H-pyrrolo[3,2-b]pyridin-2-yl)-N-methylmethanamine], the IC50 was 3.16 to 316 nM.
For `CC[C@H]1COCCN1c1cc(CS(C)(=O)=O)cc(-c2ccc3[nH]c(CNC)cc3n2)n1` [Example 13, (S)-1-(5-(6-(3-ethylmorpholino)-4-((methylsulfonyl)methyl)pyridin-2-yl)-1H-pyrrolo[3,2-b]pyridin-2-yl)-N-methylmethanamine], the IC50 was 3.16 to 316 nM.
In the case of `CC[C@H]1COCCN1c1cc(CS(=O)(=O)N(C)C)cc(-c2ccc3[nH]c(CNC)cc3n2)n1` [Example 17, (S)-1-(2-(3-ethylmorpholino)-6-(2-((methylamino)methyl)-1H-pyrrolo[3,2-b]pyridin-5-yl)pyridin-4-yl)-N,N-dimethylmethanesulfonamide] it was 2.51 to 10 nM; in that of `CC[C@H]1COCCN1c1cc(C2(S(C)(=O)=O)CC2)cc(-c2ccc3[nH]c(CNC)cc3n2)n1` [Example 19, [(5-{6-[(3S)-3-ethylmorpholin-4-yl]-4-(1-methanesulfonylcyclopropyl)pyridin-2-yl}-1H-pyrrolo[3,2-b]pyridin-2-yl)methyl](methyl)amine], 2.51 to 10 nM; in that of `CNCc1cc2nc(-c3cc(C4(S(C)(=O)=O)CC4)cc(N4CCOC[C@@H]4C)n3)ccc2[nH]1` [Example 20, ({5-[4-(1-methanesulfonylcyclopropyl)-6-[(3S)-3-methylmorpholin-4-yl]pyridin-2-yl]-1H-pyrrolo[3,2-b]pyridin-2-yl}methyl)(methyl)amine], 3.16 to 316 nM.
In the case of `CC[C@H]1COCCN1c1cc(C(C)(C)S(C)(=O)=O)cc(-c2ccc3[nH]c(CN)cc3n2)n1` [Example 21, 1-(5-{6-[(3S)-3-ethylmorpholin-4-yl]-4-(2-methanesulfonylpropan-2-yl)pyridin-2-yl}-1H-pyrrolo[3,2-b]pyridin-2-yl)methanamine] it was 3.16 to 316 nM; in that of `CC[C@H]1COCCN1c1cc(C2(S(C)(=O)=O)CCOCC2)cc(-c2ccc3[nH]c(CN)cc3n2)n1` [Example 23, 1-(5-{6-[(3S)-3-ethylmorpholin-4-yl]-4-(4-methanesulfonyloxan-4-yl)pyridin-2-yl}-1H-pyrrolo[3,2-b]pyridin-2-yl)methanamine], 2.51 to 10 nM; in that of `CNCc1cc2nc(-c3cc(CS(C)(=O)=O)cc(N4CC5CCC(C4)O5)n3)ccc2[nH]1` [Example 25, ({5-[4-(methanesulfonylmethyl)-6-{8-oxa-3-azabicyclo[3.2.1]octan-3-yl}pyridin-2-yl]-1H-pyrrolo[3,2-b]pyridin-2-yl}methyl)(methyl)amine], 3.16 to 316 nM.
In the case of `CC[C@H]1COCCN1c1cc(C(C)(C)S(N)(=O)=O)cc(-c2ccc3[nH]c(CNC)cc3n2)n1` [Example 28, 2-{2-[(3S)-3-ethylmorpholin-4-yl]-6-{2-[(methylamino)methyl]-1H-pyrrolo[3,2-b]pyridin-5-yl}pyridin-4-yl}propane-2-sulfonamide] it was 3.16 to 316 nM; in that of `CC[C@H]1COCCN1c1cc(CS(=O)(=O)NC)cc(-c2ccc3[nH]c(CNC)cc3n2)n1` [Example 30, 1-{2-[(3S)-3-ethylmorpholin-4-yl]-6-{2-[(methylamino)methyl]-1H-pyrrolo[3,2-b]pyridin-5-yl}pyridin-4-yl}-N-methylmethanesulfonamide], 3.16 to 316 nM; in that of `CC[C@H]1COCCN1c1cc(C2(S(=O)(=O)N(C)C)CCOCC2)cc(-c2ccc3[nH]c(CNC)cc3n2)n1` [Example 31, 4-{2-[(3S)-3-ethylmorpholin-4-yl]-6-{2-[(methylamino)methyl]-1H-pyrrolo[3,2-b]pyridin-5-yl}pyridin-4-yl}-N,N-dimethyloxane-4-sulfonamide], 2.51 to 10 nM.
On to `CC[C@H]1COCCN1c1cc(C(C)(C)S(C)(=O)=O)cc(-c2ccc3[nH]c(CO)cc3n2)n1` [Example 32], for which the IC50 was 3.16 to 316 nM.

The values are drawn from patent publication US11254671B2, “Chemical compounds” (GLAXOSMITHKLINE INTELLECTUAL PROPERTY DEVELOPMENT LIMITED, priority 2017, dated 2022).
